# Laboratory results from publication PMC12613848, “First in human phase 1 study of DT2216, a selective BCL-xL degrader, in patients with relapsed/refractory solid malignancies” (Journal of Hematology & Oncology, 2025).
# Like-named read-outs stand apart in the source and are kept apart here.
# Assay: Plasma pharmacokinetics of DT2216 in patients, phase 1 dose escalation
# Assay type: in vivo, human
# Conditions: human, plasma, iv, plasma; for clearance: read-out: CL (converted); for half-life: read-out: T½ (converted); for Vd: read-out: Vdss; for Tmax: median (min, max)
# Method: Dose escalation consisted of the administration of DT2216 intravenously twice weekly at several different doses outlined in protocol attached. The starting dose was 0.04 mg/kg, established based on pre-clinical toxicity studies. Safety was evaluated using CTCAE version 5.0. The initial three dose levels enrolled one patient, following which for dose level 4 and 5, a 3 + 3 design was utilized following a 100% incremental dose increase for dose levels 2 to 5 until the first dose limiting toxicity (DLT) in cycle 1 was observed. Thereafter, a modified Fibonacci sequence was used to define dose escalation increments until the maximum tolerated dose (MTD) was reached as described in protocol. If no dose-limiting toxicity (DLT) was observed during the DLT monitoring period of first 28 days, the next patient was enrolled at the next higher dose level. Dose-limiting toxicities (DLTs) during the first treatment cycle were defined as any Grade 5 toxicity; Grade 4 neutropenia lasting > 7 days; febrile neutropenia; Grade 4 thrombocytopenia or Grade 3 thrombocytopenia with clinically significant hemorrhage or lasting ≥ 7 days; and Grade ≥ 3 non-hematologic toxicities, excluding nausea, vomiting, or diarrhea lasting ≤ 3 days or transient laboratory abnormalities resolving within 72 h. Hepatotoxicity meeting Hy’s law criteria was also considered a DLT. Transient Grade 3–4 electrolyte abnormalities resolving to ≤ Grade 2 within 72 h were not considered DLTs.
# Patients were allowed a maximum of two intra-patient dose escalations. Patients received DT2216 by intravenous infusion on days 1 and 4 weekly for at least 4 weeks, with each cycle consisting of a 28-day cycle for a maximum duration of 1 year until disease progression, unacceptable toxicity, or other withdrawal criteria, as listed in the protocol. The extent of disease was evaluated using imaging studies and disease-appropriate tumor markers every 8 weeks from day 1 of the first cycle. RP2D was established based on MTD as well as other relevant data, including clinical signals of activity, PK, and PD data.
# Premedication prior to each infusion was at the discretion of the investigator or according to institutional guidelines. Patient assessment and follow-up procedures can be found in the schedule of assessments in this study. The clinical response was evaluated using RECIST v1.1 per protocol. Blood samples were collected for PK analysis before and after post-infusion at defined intervals, along with platelet counts. Exploratory biomarkers include (but are not limited to) the assessment of BCL-XL and VHL levels in peripheral white blood cells (WBC).
# Throughout the course of the dose escalation trial, only one dose-limiting toxicity was observed, with grade 4 thrombocytopenia at a dose level of 0.32 mg/kg. […] The pharmacokinetic parameters of DT2216 were determined in patients following doses on Cycle 1 Day 1 and Cycle 1 Day 22 (Tables 4 and 5). […] AUC0-∞ values ranged from 8650 to 72,300 ng · h/mL over the dose range of 0.04 mg/kg 0.4 mg/kg. […] The volume of distribution at steady state (Vss) was small (< 100 mL/kg) and consistent across the dose groups. Following repeated dosing, accumulation of DT2216 in plasma was not observed with twice weekly dosing, with accumulation ratio values ranging from 0.74 to 1.07 on Cycle 1 Day 22 ([…]) across the dose groups.
# [1] = 0.12 mg/kg, Cycle 1 Day 22, 0.12 mg/kg IV BIW, mean (CV%), N = 1
# [2] = 0.24 mg/kg, Cycle 1 Day 1, 0.24 mg/kg IV, mean (CV%), N = 7
# [3] = 0.24 mg/kg, Cycle 1 Day 22, 0.24 mg/kg IV BIW, mean (CV%), N = 6
# [4] = 0.32 mg/kg, Cycle 1 Day 1, 0.32 mg/kg IV, mean (CV%), N = 5
# [5] = 0.32 mg/kg, Cycle 1 Day 22, 0.32 mg/kg IV BIW, mean (CV%), N = 5
# [6] = 0.4 mg/kg, Cycle 1 Day 1, 0.4 mg/kg IV, mean (CV%), N = 4
# [7] = 0.4 mg/kg, Cycle 1 Day 22, 0.4 mg/kg IV BIW, mean (CV%), N = 4
smiles,measurement,setting,value
Cc1ncsc1-c1ccc([C@H](C)NC(=O)[C@@H]2C[C@@H](O)CN2C(=O)[C@@H](NC(=O)CCCCCC(=O)N2CCN(CC[C@H](CSc3ccccc3)Nc3ccc(S(=O)(=O)NC(=O)c4ccc(N5CCN(CC6=C(c7ccc(Cl)cc7)CCC(C)(C)C6)CC5)cc4)cc3S(=O)(=O)C(F)(F)F)CC2)C(C)(C)C)cc1 [DT2216],clearance,[1],0.138 mL/min/kg
same,Cmax,"0.12 mg/kg, Cycle 1 Day 22, 0.12 mg/kg IV BIW, mean (CV%), N = 1, read-out: Cmax",2190 ng/mL
same,half-life,[1],5.24 h
same,Vd,[1],0.0665 L/kg
same,Tmax,"0.12 mg/kg, Cycle 1 Day 22, 0.12 mg/kg IV BIW, N = 1",2.5 h
same,AUC(0-t),"0.24 mg/kg, Cycle 1 Day 1, 0.24 mg/kg IV, mean (CV%), N = 6, read-out: AUC0−24",24500 ng·h/mL
same,AUC(0-t),"0.24 mg/kg, Cycle 1 Day 1, 0.24 mg/kg IV, mean (CV%), N = 6, read-out: AUClast",37600 ng·h/mL
same,AUC(0-inf),"0.24 mg/kg, Cycle 1 Day 1, 0.24 mg/kg IV, mean (CV%), N = 7, read-out: AUC0−∞",36500 ng·h/mL
same,clearance,[2],0.122 mL/min/kg
same,Cmax,"0.24 mg/kg, Cycle 1 Day 1, 0.24 mg/kg IV, mean (CV%), N = 7, read-out: Cmax",4080 ng/mL
same,half-life,[2],10.4 h
same,Vd,[2],0.0839 L/kg
same,Tmax,"0.24 mg/kg, Cycle 1 Day 1, 0.24 mg/kg IV, N = 7",0.75 h
same,AUC(0-t),"0.24 mg/kg, Cycle 1 Day 22, 0.24 mg/kg IV BIW, mean (CV%), N = 6, read-out: AUC0−24",26300 ng·h/mL
same,AUC(0-inf),"0.24 mg/kg, Cycle 1 Day 22, 0.24 mg/kg IV BIW, mean (CV%), N = 6, read-out: AUC0−∞",30100 ng·h/mL
same,AUC(0-t),"0.24 mg/kg, Cycle 1 Day 22, 0.24 mg/kg IV BIW, mean (CV%), N = 6, read-out: AUClast",26400 ng·h/mL
same,clearance,[3],0.15 mL/min/kg
same,Cmax,"0.24 mg/kg, Cycle 1 Day 22, 0.24 mg/kg IV BIW, mean (CV%), N = 6, read-out: Cmax",3090 ng/mL
same,half-life,[3],7.27 h
same,Vd,[3],0.0939 L/kg
same,Tmax,"0.24 mg/kg, Cycle 1 Day 22, 0.24 mg/kg IV BIW, N = 6",2.5 h
same,AUC(0-inf),"0.32 mg/kg, Cycle 1 Day 1, 0.32 mg/kg IV, mean (CV%), N = 5, read-out: AUC0−∞",41500 ng·h/mL
same,clearance,[4],0.132 mL/min/kg
same,half-life,[4],7.09 h
same,Vd,[4],0.0683 L/kg
same,AUC(0-t),"0.32 mg/kg, Cycle 1 Day 1, 0.32 mg/kg IV, mean (CV%), N = 6, read-out: AUC0−24",33300 ng·h/mL
same,AUC(0-t),"0.32 mg/kg, Cycle 1 Day 1, 0.32 mg/kg IV, mean (CV%), N = 6, read-out: AUClast",43200 ng·h/mL
same,Cmax,"0.32 mg/kg, Cycle 1 Day 1, 0.32 mg/kg IV, mean (CV%), N = 6, read-out: Cmax",5710 ng/mL
same,Tmax,"0.32 mg/kg, Cycle 1 Day 1, 0.32 mg/kg IV, N = 6",0.75 h
same,AUC(0-t),"0.32 mg/kg, Cycle 1 Day 22, 0.32 mg/kg IV BIW, mean (CV%), N = 5, read-out: AUC0−24",32700 ng·h/mL
same,AUC(0-inf),"0.32 mg/kg, Cycle 1 Day 22, 0.32 mg/kg IV BIW, mean (CV%), N = 5, read-out: AUC0−∞",35000 ng·h/mL
same,AUC(0-t),"0.32 mg/kg, Cycle 1 Day 22, 0.32 mg/kg IV BIW, mean (CV%), N = 5, read-out: AUClast",32900 ng·h/mL
same,clearance,[5],0.154 mL/min/kg
same,half-life,[5],5.82 h
same,Vd,[5],0.0837 L/kg
same,Cmax,"0.32 mg/kg, Cycle 1 Day 22, 0.32 mg/kg IV BIW, mean (CV%), N = 6, read-out: Cmax",4480 ng/mL
same,Tmax,"0.32 mg/kg, Cycle 1 Day 22, 0.32 mg/kg IV BIW, N = 6",2.5 h
same,AUC(0-t),"0.4 mg/kg, Cycle 1 Day 1, 0.4 mg/kg IV, mean (CV%), N = 4, read-out: AUC0−24",53000 ng·h/mL
same,AUC(0-inf),"0.4 mg/kg, Cycle 1 Day 1, 0.4 mg/kg IV, mean (CV%), N = 4, read-out: AUC0−∞",73200 ng·h/mL
same,AUC(0-t),"0.4 mg/kg, Cycle 1 Day 1, 0.4 mg/kg IV, mean (CV%), N = 4, read-out: AUClast",72300 ng·h/mL
same,clearance,[6],0.0928 mL/min/kg
same,Cmax,"0.4 mg/kg, Cycle 1 Day 1, 0.4 mg/kg IV, mean (CV%), N = 4, read-out: Cmax",8590 ng/mL
same,half-life,[6],10.7 h
same,Vd,[6],0.0709 L/kg
same,Tmax,"0.4 mg/kg, Cycle 1 Day 1, 0.4 mg/kg IV, N = 4",0.75 h
same,AUC(0-t),"0.4 mg/kg, Cycle 1 Day 22, 0.4 mg/kg IV BIW, mean (CV%), N = 4, read-out: AUC0−24",53700 ng·h/mL
same,AUC(0-inf),"0.4 mg/kg, Cycle 1 Day 22, 0.4 mg/kg IV BIW, mean (CV%), N = 4, read-out: AUC0−∞",59500 ng·h/mL
same,AUC(0-t),"0.4 mg/kg, Cycle 1 Day 22, 0.4 mg/kg IV BIW, mean (CV%), N = 4, read-out: AUClast",54000 ng·h/mL
same,clearance,[7],0.117 mL/min/kg
same,Cmax,"0.4 mg/kg, Cycle 1 Day 22, 0.4 mg/kg IV BIW, mean (CV%), N = 4, read-out: Cmax",6270 ng/mL
same,half-life,[7],6.7 h
same,Vd,[7],0.0729 L/kg
same,Tmax,"0.4 mg/kg, Cycle 1 Day 22, 0.4 mg/kg IV BIW, N = 4",2.5 h
same,AUC(0-inf),"over dose range 0.04 mg/kg to 0.4 mg/kg IV, read-out: AUC0-∞ values",8650 to 72300 ng·h/mL
same,Cmax,"over dose range 0.04 mg/kg to 0.4 mg/kg IV, read-out: mean Cmax values",738 to 8590 ng/mL
